Results from patent US20180164317A1, “METHOD FOR STRATIFICATION OF MELANOMA PATIENTS BY DETERMINATION OF OXYGEN CONSUMPTION, PPARGC1A, PPARGC1B AND MITF LEVELS” (Bayer Pharma Aktiengesellschaft, priority 2015, published 2018).

Legend:
[1] = system: A-431; test: GI50 determination, cell viability (Alamar Blue or Cell Titer Glo); type: cell-based; conditions: Homo sapiens; A-431 cells; cell viability measured at days 3, 5 and 7; triplicate experiments
Procedure: (§1) COLO-792, SK-MEL-2, SK-MEL-28, IPC-298 and MEL-HO cells were cultured in RPMI media supplemented with 10% heat-inactivated and filtered FCS (hFCS). CHL-1, Hs852.T, G-361, RPMI-7951 and A-431 cells were cultured in DMEM media supplemented with 10% hFCS. HMCB cells were grown in MEM Earle's media containing 10% hFCS, 1 mM NaPyruvate, non-essential amino acids and 1 mM HEPES. Penicillin (at 50 I.U./mL), streptomycin (at 50 μg/mL), and L-glutamine (at 2 mM) or stable glutamine (supplied with the media) were additional ingredients in all culture media. All cells were grown in an incubator at 37° C. with 5% carbon dioxide.
(§2) Cells were counted and distributed to 96-well plates, with 1000-5000 cells per well. Each plate also contained wells with media alone for background measurements. Appropriate dilutions of BAY 123 or JQ1 were made in media in a titration series. When adherent cells were fully attached, media was removed and replaced with media containing BAY 123, JQ1, or DMSO as a control. Alternatively, appropriate volumes of BAY 123, JQ1 or DMSO were added to media using a dispenser (HP D300, Tecan).
(§3) Cell viability was measured at days 3, 5, and 7, with Alamar Blue (LifeTechnologies) staining and fluorescence detection (excitation 530nm, emission 590nm) in a microplate reader. Alternatively, Cell Titer Glo (Promega) was used, followed by luminescence detection. GI50 values were calculated from triplicate experiments using GraphPad prism software, using curves from plots of fluorescence or luminescence intensity vs. BAY 123 or JQ1 concentration in each cell line. […] Cell lines with a GI50 below 600 nM were defined as sensitive to BET inhibition.

[2] = system: CHL-1; test: as above; type: cell-based; conditions: Homo sapiens; CHL-1 cells; cell viability measured at days 3, 5 and 7; triplicate experiments
Procedure: as §1, §2, §3

[3] = system: COLO-792; test: as above; type: cell-based; conditions: Homo sapiens; COLO-792 cells; cell viability measured at days 3, 5 and 7; triplicate experiments
Procedure: as §1, §2, §3

[4] = system: G-361; test: as above; type: cell-based; conditions: Homo sapiens; G-361 cells; cell viability measured at days 3, 5 and 7; triplicate experiments
Procedure: as §1, §2, §3

[5] = system: HMCB; test: as above; type: cell-based; conditions: Homo sapiens; HMCB cells; cell viability measured at days 3, 5 and 7; triplicate experiments
Procedure: as §1, §2, §3

[6] = system: Hs 852.T; test: as above; type: cell-based; conditions: Homo sapiens; Hs 852.T cells; cell viability measured at days 3, 5 and 7; triplicate experiments
Procedure: as §1, §2, §3

[7] = system: IPC-298; test: as above; type: cell-based; conditions: Homo sapiens; IPC-298 cells; cell viability measured at days 3, 5 and 7; triplicate experiments
Procedure: as §1, §2, §3

[8] = system: MEL-HO; test: as above; type: cell-based; conditions: Homo sapiens; MEL-HO cells; cell viability measured at days 3, 5 and 7; triplicate experiments
Procedure: as §1, §2, §3

[9] = system: RPMI-7951; test: as above; type: cell-based; conditions: Homo sapiens; RPMI-7951 cells; cell viability measured at days 3, 5 and 7; triplicate experiments
Procedure: as §1, §2, §3

[10] = system: SK-MEL-28; test: as above; type: cell-based; conditions: Homo sapiens; SK-MEL-28 cells; cell viability measured at days 3, 5 and 7; triplicate experiments
Procedure: as §1, §2, §3

[11] = system: SK-MEL-2; test: as above; type: cell-based; conditions: Homo sapiens; SK-MEL-2 cells; cell viability measured at days 3, 5 and 7; triplicate experiments
Procedure: as §1, §2, §3

[12] = system: COLO-792; test: Basal oxygen consumption rate (OCR), XF96 extracellular flux analyzer; type: cell-based, human; conditions: COLO-792 cells; FIG. 4
[13] = system: CHL-1; test: as above; type: cell-based, human; conditions: CHL-1 cells; 1 μM, 20 h pre-incubation; FIG. 4
Procedure: (§4) The OCR in G-361, CHL-1, RPMI-7951 and SK-MEL-2 melanoma cells was measured using the XF96 extracellular flux analyzer (Seahorse Bioscience) under standard conditions and after pre-incubation with 1 μM BAY 123 or JQ1 inhibitor for 20 h. Baseline mitochondrial function and mitochondrial stress response were measured by OCR using the XF Mito Stress Test Kit with an XF96 extracellular flux analyzer (Seahorse Bioscience). […] The drug injection ports of the XF96 Assay Cartridge were loaded with assay reagents at a final concentration of 1 μM oligomycin (ATP synthase inhibitor), 0.5 μM FCCP (ionophore and mitochondrial uncoupler which disrupts proton gradient and ATP synthesis), 1 μM Rotenone (mitochondrial complex I inhibitor) and 1 μM Antimycin A (mitochondrial complex III inhibitor).
(§5) Briefly, cells treated with 1 μM BAY 123 or JQ1 inhibitor for 20 h were seeded in quadruplicate at equal densities (20,000-30,000 cells/well) into XF96 tissue culture plates (Seahorse Bioscience). Cell culture medium was changed 12 hours after cell seeding into unbuffered DMEM (8.3 g/l DMEM [Sigma], 2 mM Glutamax [Invitrogen] 5 mM Glucose [Sigma], 1.85 g/l NaCl [Sigma], adjusted to pH 7.4 with NaOH). Real-time measurements of OCR in […] in culture medium were conducted. OCR was measured over time at baseline and following consecutive injections of 1 μM Oligomycin, 0.5 μM FCCP and a mix of 1 μM Rotenone+1 μM Antimycin A. The basal mitochondrial OCR was calculated. The OCR values were normalized to cell numbers plated. To this end, the cells were stained using Cyquant (Life technologies) and fluorescence measurements were made using a microplate reader with excitation at 485 nm and emission detection at 530 nm [Tecan].

[14] = system: G-361; test: as above; type: cell-based, human; conditions: G-361 cells; 1 μM, 20 h pre-incubation; FIG. 4
Procedure: as §4, §5

[15] = system: SK-MEL-2; test: as above; type: cell-based, human; conditions: SK-MEL-2 cells; 1 μM, 20 h pre-incubation; FIG. 4
Procedure: as §4, §5

[16] = system: melanoma cell lines (G-361, CHL-1, RPMI-7951, SK-MEL-2); test: Basal OCR, marker positive versus negative melanoma cell lines, XF96 analyzer; type: cell-based, human; conditions: 1 μM, 20 h treatment
Procedure: as §4
Briefly, cells treated with 1 μM BAY 123 or JQ1 inhibitor for 20 h were seeded in quadruplicate at equal densities (20,000-30,000 cells/well) into XF96 tissue culture plates (Seahorse Bioscience). […] OCR was measured over time at baseline and following consecutive injections of 1 μM Oligomycin, 0.5 μM FCCP and a mix of 1 μM Rotenone+1 μM Antimycin A. The basal mitochondrial OCR was calculated. […] To this end, the cells were stained using Cyquant (Life technologies) and fluorescence measurements were made using a microplate reader with excitation at 485 nm and emission detection at 530 nm [Tecan].

Structure (SMILES): Cc1sc2c(c1C)C(c1ccc(Cl)cc1)=NC(CC(=O)OC(C)(C)C)c1nnc(C)n1-2 (racemic) [JQ1, [(R,S)-4-(4-Chlorophenyl)-2,3,9-trimethyl-6H-1-thia-5,7,8,9a-tetraaza-cyclopenta[e]azulen-6-yl]-acetic acid tert-butyl ester]
- GI50 [1]: 720 nM
- GI50 [2]: 60 nM
- GI50 [3]: 50 nM
- GI50 [4]: 240 nM
- GI50 [5]: 330 nM
- GI50 [6]: 7570 nM
- GI50 [7]: 60 nM
- GI50 [8]: 190 nM
- GI50 [9]: 1460 nM
- GI50 [10]: 1760 nM
- GI50 [11]: > 20000 nM
- basal OCR with versus without treatment [12]: Reduction of basal OCR
- basal OCR with versus without treatment [13]: Reduction of basal OCR
- basal OCR with versus without treatment [14]: Reduction of basal OCR
- basal OCR with versus without treatment [15]: Reduction of basal OCR
- decrease of basal OCR in PPARGC1A, PPARGC1B, MITF positive melanoma (G-361, CHL-1) compared to negative melanoma cell lines (RPMI-7951, SK-MEL-2) [16]: decreased more dramatically

Structure (SMILES): CNC(=O)N1N=C(c2ccc(N3CCN(C)CC3)cc2)c2cc(OC)c(OC)cc2C[C@@H]1C [BAY 123, (4S)-7,8-dimethoxy-N,4-dimethyl-1-[4-(4-methylpiperazin-1-yl)phenyl]-4,5-dihydro-3H-2,3-benzodiazepine-3-carboxamide]
- GI50 [1]: 930 nM
- GI50 [2]: 70 nM
- GI50 [3]: 80 nM
- GI50 [4]: 250 nM
- GI50 [5]: 570 nM
- GI50 [6]: 4440 nM
- GI50 [7]: 150 nM
- GI50 [8]: 470 nM
- GI50 [9]: 2180 nM
- GI50 [10]: 1260 nM
- GI50 [11]: > 20000 nM
- basal OCR with versus without treatment [12]: Reduction of basal OCR
- basal OCR with versus without treatment [13]: Reduction of basal OCR
- basal OCR with versus without treatment [14]: Reduction of basal OCR
- basal OCR with versus without treatment [15]: Reduction of basal OCR
- decrease of basal OCR in PPARGC1A, PPARGC1B, MITF positive melanoma (G-361, CHL-1) compared to negative melanoma cell lines (RPMI-7951, SK-MEL-2) [16]: decreased more dramatically
